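A five-concentration, 48-hour dose response in 96-well plates underlies each endpoint, interpolated linearly between surrounding concentrations. Here, GI50 denotes the concentration required for 50% inhibition of growth.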 Calls of active or inactive are those of the source. No stated cut-off is given here; in the data, active = GI50 up to about 1.1 µM and inactive = higher.
Tests used:
Experiment in all cases: growth of human tumour cells (NCI), 48 h
OVCAR-5 = tested on: OVCAR-5
SF-295 = tested on: SF-295
OVCAR-8 = tested on: OVCAR-8
HCC 2998 = tested on: HCC 2998
SK-MEL-5 = tested on: SK-MEL-5
RPMI-8226 = tested on: RPMI-8226
UO-31 = tested on: UO-31
HCT-116 = tested on: HCT-116
SK-MEL-2 = tested on: SK-MEL-2
SW-620 = tested on: SW-620
SNB-75 = tested on: SNB-75
K562 = tested on: K562
A549 = tested on: A549
COLO 205 = tested on: COLO 205
NCI-H522 = tested on: NCI-H522
UACC-62 = tested on: UACC-62
UACC-257 = tested on: UACC-257
SNB-19 = tested on: SNB-19
MOLT-4 = tested on: MOLT-4
KM12 = tested on: KM12

Measured: GI50

Nc1n[nH]c2nc3ccccc3nc12 [QUINOXALINE1]
inactive: OVCAR-5 38 µM | SF-295 > 100 µM | OVCAR-8 > 100 µM | HCC 2998 > 100 µM | SK-MEL-5 > 100 µM | RPMI-8226 36.1 µM | UO-31 39.6 µM | HCT-116 31 µM | SK-MEL-2 > 100 µM | SW-620 86.7 µM | SNB-75 37.1 µM | K562 > 100 µM | A549 61.9 µM | COLO 205 61.8 µM | NCI-H522 44.1 µM | UACC-62 45 µM | UACC-257 > 100 µM | SNB-19 > 100 µM | MOLT-4 61.1 µM

Cc1ccc(S(N)(C(=O)Nc2cccc3ccccc23)[N+](=O)[O-])cc1 (stereo unspecified)
inactive: OVCAR-5 > 100 µM | SF-295 89.7 µM | OVCAR-8 > 100 µM | HCC 2998 > 100 µM | SK-MEL-5 93.3 µM | RPMI-8226 48.6 µM | UO-31 35.7 µM | HCT-116 66.7 µM | SK-MEL-2 > 100 µM | SW-620 > 100 µM | SNB-75 > 100 µM | K562 55 µM | COLO 205 > 100 µM | UACC-62 > 100 µM | UACC-257 > 100 µM | SNB-19 92.5 µM | MOLT-4 29.5 µM | KM12 > 100 µM

O=[N+]([O-])C(=C/c1ccccc1)/C(=C\c1ccccc1)[N+](=O)[O-]
inactive: OVCAR-5 22 µM | SF-295 18.7 µM | OVCAR-8 20 µM | HCC 2998 21.6 µM | SK-MEL-5 15.9 µM | RPMI-8226 10.3 µM | UO-31 17.5 µM | HCT-116 17.8 µM | SK-MEL-2 20.1 µM | SW-620 13.5 µM | SNB-75 18.4 µM | K562 7.11 µM | A549 28.6 µM | COLO 205 15.2 µM | UACC-62 16.6 µM | UACC-257 17 µM | SNB-19 18.2 µM | MOLT-4 3.2 µM | KM12 15.4 µM

COC(OC)C1OC(CO)C(n2cc(F)c(=O)[nH]c2=O)C1O (stereo unspecified)
inactive: OVCAR-5 > 100 µM | SF-295 > 100 µM | OVCAR-8 > 100 µM | HCC 2998 > 100 µM | RPMI-8226 > 100 µM | UO-31 > 100 µM | HCT-116 > 100 µM | SK-MEL-2 > 100 µM | SW-620 > 100 µM | SNB-75 > 100 µM | K562 > 100 µM | A549 > 100 µM | COLO 205 10.7 µM | NCI-H522 > 100 µM | UACC-62 > 100 µM | UACC-257 > 100 µM | SNB-19 > 100 µM | MOLT-4 > 100 µM | KM12 > 100 µM

c1ccc(/N=C2\SC3=NCCN3\C2=N/c2ccccc2)cc1
inactive: OVCAR-5 20.1 µM | SF-295 17.5 µM | OVCAR-8 25.9 µM | HCC 2998 18.7 µM | SK-MEL-5 15.5 µM | RPMI-8226 16.3 µM | UO-31 13.5 µM | HCT-116 13.6 µM | SK-MEL-2 19.9 µM | SNB-75 18 µM | K562 4.24 µM | COLO 205 15.5 µM | NCI-H522 13.6 µM | UACC-62 7.38 µM | SNB-19 17.1 µM | MOLT-4 3.47 µM | KM12 15.9 µM

O=C1C(Cl)N(c2ccccc2)C1c1c[nH]c2ccccc12 (stereo unspecified)
inactive: OVCAR-5 46 µM | SF-295 > 100 µM | OVCAR-8 > 100 µM | SK-MEL-5 > 100 µM | RPMI-8226 > 100 µM | UO-31 65.6 µM | HCT-116 > 100 µM | SK-MEL-2 > 100 µM | SW-620 > 100 µM | SNB-75 > 100 µM | K562 > 100 µM | A549 > 100 µM | COLO 205 > 100 µM | NCI-H522 > 100 µM | UACC-62 > 100 µM | UACC-257 > 100 µM | SNB-19 48.9 µM | MOLT-4 > 100 µM | KM12 > 100 µM

O=c1oc2ccccc2n1P(=O)(n1c(=O)oc2ccccc21)n1c(=O)oc2ccccc21
inactive: OVCAR-5 > 100 µM | SF-295 > 100 µM | HCC 2998 > 100 µM | UO-31 > 100 µM | HCT-116 > 100 µM | SK-MEL-2 > 100 µM | SW-620 > 100 µM | SNB-75 90.2 µM | K562 > 100 µM | A549 > 100 µM | COLO 205 > 100 µM | NCI-H522 > 100 µM | UACC-62 > 100 µM | UACC-257 > 100 µM | SNB-19 > 100 µM | MOLT-4 > 100 µM | KM12 > 100 µM

c1ccc2cc3n[se]nc3cc2c1
inactive: OVCAR-5 > 100 µM | SF-295 39.4 µM | OVCAR-8 > 100 µM | HCC 2998 38.9 µM | SK-MEL-5 68.1 µM | RPMI-8226 > 100 µM | UO-31 55.8 µM | SK-MEL-2 > 100 µM | SW-620 > 100 µM | SNB-75 56.9 µM | K562 > 100 µM | A549 52.7 µM | COLO 205 > 100 µM | NCI-H522 > 100 µM | UACC-62 > 100 µM | UACC-257 > 100 µM | SNB-19 81.1 µM | MOLT-4 75.5 µM | KM12 > 100 µM

COP(=O)(OC)/C(=C/c1cn(C(C)=O)c2ccccc12)NC(C)=O
inactive: OVCAR-5 > 100 µM | SF-295 37.2 µM | OVCAR-8 32.2 µM | HCC 2998 > 10 µM | SK-MEL-5 22.1 µM | RPMI-8226 12.6 µM | HCT-116 26.4 µM | SK-MEL-2 2.18 µM | SW-620 18.5 µM | SNB-75 49.2 µM | K562 6.75 µM | A549 > 100 µM | COLO 205 61.4 µM | NCI-H522 > 100 µM | UACC-257 > 100 µM | MOLT-4 > 10 µM

COc1nc2ccc(CNc3ccc(C(=O)NC(CCC(=O)O)C(=O)O)cc3)cc2nc1OC (stereo unspecified)
inactive: OVCAR-5 > 100 µM | SF-295 > 100 µM | OVCAR-8 > 100 µM | HCC 2998 > 100 µM | SK-MEL-5 > 100 µM | RPMI-8226 > 100 µM | UO-31 > 100 µM | SK-MEL-2 > 100 µM | SW-620 39.6 µM | SNB-75 > 100 µM | K562 25.3 µM | A549 > 100 µM | COLO 205 > 100 µM | NCI-H522 > 100 µM | UACC-62 > 100 µM | UACC-257 > 100 µM | SNB-19 > 100 µM | MOLT-4 18.8 µM | KM12 > 100 µM

CCCNc1[nH]c(C(=O)c2ccccc2)c(N)c1C(=S)Nc1ccccc1
inactive: OVCAR-5 > 100 µM | SF-295 > 100 µM | OVCAR-8 > 100 µM | HCC 2998 > 100 µM | SK-MEL-5 > 100 µM | UO-31 > 100 µM | HCT-116 > 100 µM | SK-MEL-2 > 100 µM | SW-620 > 100 µM | SNB-75 > 100 µM | K562 > 100 µM | A549 > 100 µM | COLO 205 > 100 µM | NCI-H522 > 100 µM | UACC-62 > 100 µM | UACC-257 > 100 µM | SNB-19 > 100 µM | MOLT-4 > 100 µM | KM12 > 100 µM
